Results: article PMC12306498, “Microwave-assisted synthesis of tubulin assembly inhibitors as anticancer agents by aryl ring reversal and conjunctive approach” (RSC Medicinal Chemistry, 2025)
“And” between values parts separate entries of the source, which are not always exact repeats. Identical values can stand only once. Like-named read-outs stand apart in the source and are kept apart here.

What was measured:
tubulin [1] = experiment: Inhibition of [3H]colchicine binding to tubulin; conditions: for Colch. binding (% ± SD): inhibition of [3H]colchicine binding, tubulin, [3H]colchicine, inhibitor at 1, 5 and 5 μM
Procedure: The reaction mixtures contained 1.0 μM tubulin, 5.0 μM [^3H]colchicine, and 5.0 or 1.0 μM inhibitor, as indicated, and were incubated for 10 min at 37 °C. Complete details were described previously.[36]

tubulin [2] = experiment: Inhibition of tubulin polymerization (tubulin assembly, turbidity at 350 nm); assay type: biochemical; conditions: tubulin at 10 μM, read-out: Tubulin IC50 ± SD
Procedure: The assembly reaction mixtures contained 0.8 M monosodium glutamate (pH 6.6 with HCl in a 2 M stock solution), 10 μM tubulin, 4% (v/v) DMSO, and varying concentrations of drug. Following a 15 min preincubation at 30 °C, samples were chilled on ice, GTP to 0.4 mM was added, and turbidity development was followed at 350 nm in a temperature-controlled recording spectrophotometer for 20 min at 30 °C. The extent of reaction was measured. Full experimental details were previously described.[35]

[3] = tested on: MCF-7 human breast carcinoma cells; experiment: MCF-7 cell growth inhibition; assay type: cell-based; conditions: read-out: MCF-7 IC50 ± SD
[4] = Homo sapiens, MCF7, cells grown for 96 h
[5] = Homo sapiens, MCF7, 96 h, cells grown for 96 h

Structure (SMILES): COc1ccc(/C=C\c2cc(OC)c(OC)c(OC)c2)cc1O [CA4, combretastatin A-4, reference compound]
- Inhibition of [3H]colchicine binding (tubulin [1]; inhibitor at 1 μM, tubulin 1 μM, [3H]colchicine 5 μM): 78%

Structure (SMILES): COc1cc(C(=O)c2cn(-c3ccccn3)cc2-c2ccc(C)cc2)cc(OC)c1OC [Compound 3, (1-(Pyridin-2-yl)-4-(4-tolyl)-1H-pyrrol-3-yl)(3,4,5-trimethoxyphenyl)methanone]
- Colch. binding (% ± SD) (tubulin [1]): 59 ± 0.9%
- IC50 (tubulin [2]): 500 ± 100 nM
- IC50 [3, 4]: 1500 ± 200 nM

Structure (SMILES): COc1cc(C(=O)c2cn(-c3ccccn3)cc2-c2ccc(C(F)(F)F)cc2)cc(OC)c1OC [Compound 5, (1-(Pyridin-2-yl)-4-(4-(trifluoromethyl)phenyl)-1H-pyrrol-3-yl)(3,4,5-trimethoxyphenyl)methanone]
- Colch. binding (% ± SD) (tubulin [1]): 3.2 ± 5%
- IC50 (tubulin [2]): 2000 ± 100 nM
- IC50 [3, 4]: 652 ± 12.6 nM

Structure (SMILES): COc1cc(C(=O)c2cn(-c3ccccn3)cc2-c2ccc(Cl)cc2)cc(OC)c1OC [Compound 6, (4-(4-Chlorophenyl)-1-(pyridin-2-yl)-1H-pyrrol-3-yl)(3,4,5-trimethoxyphenyl)methanone]
- Colch. binding (% ± SD) (tubulin [1]): 66 ± 3%
- IC50 (tubulin [2]): 520 ± 5 nM
- IC50 [3, 4]: 340 ± 60 nM

Structure (SMILES): COc1cc(C(=O)c2cn(-c3ccccn3)cc2-c2ccc(N(C)C)cc2)cc(OC)c1OC [Compound 7, (4-(4-(Dimethylamino)phenyl)-1-(pyridin-2-yl)-1H-pyrrol-3-yl)(3,4,5-trimethoxyphenyl)methanone]
- Colch. binding (% ± SD) (tubulin [1]): 72% and 72 ± 0.2%
- IC50 (tubulin [2]): 430 ± 40 nM
- IC50 [3, 4]: 120 ± 40 nM

Structure (SMILES): COc1cc(OC)cc(-c2cn(-c3ccccn3)cc2C(=O)c2cc(OC)c(OC)c(OC)c2)c1 [Compound 8, (4-(3,5-Dimethoxyphenyl)-1-(pyridin-2-yl)-1H-pyrrol-3-yl)(3,4,5-trimethoxyphenyl)methanone]
- Colch. binding (% ± SD) (tubulin [1]): 21 ± 5%
- IC50 (tubulin [2]): 1600 ± 200 nM
- IC50 [3, 4]: 2200 ± 400 nM

Structure (SMILES): COc1cc(C(=O)c2cn(-c3cccnc3)cc2-c2ccc(C)cc2)cc(OC)c1OC [Compound 9, (1-(Pyridin-3-yl)-4-(4-tolyl)-1H-pyrrol-3-yl)(3,4,5-trimethoxyphenyl)methanone]
- Colch. binding (% ± SD) (tubulin [1]): 20 ± 5%
- IC50 (tubulin [2]): 1900 ± 200 nM
- IC50 [3, 4]: 670 ± 200 nM

Structure (SMILES): COc1ccc(-c2cn(-c3cccnc3)cc2C(=O)c2cc(OC)c(OC)c(OC)c2)cc1 [Compound 10, (4-(4-Methoxyphenyl)-1-(pyridin-3-yl)-1H-pyrrol-3-yl)(3,4,5-trimethoxyphenyl)methanone]
- Colch. binding (% ± SD) (tubulin [1]): 29 ± 0.8%
- IC50 (tubulin [2]): 840 ± 20 nM
- IC50 [3, 4]: 758 ± 9.3 nM

Structure (SMILES): COc1cc(C(=O)c2cn(-c3cccnc3)cc2-c2ccc(Cl)cc2)cc(OC)c1OC [Compound 11, (4-(4-Chlorophenyl)-1-(pyridin-3-yl)-1H-pyrrol-3-yl)(3,4,5-trimethoxyphenyl)methanone]
- Colch. binding (% ± SD) (tubulin [1]): 29 ± 4%
- IC50 (tubulin [2]): 1500 ± 200 nM
- IC50 [3, 4]: 1500 ± 400 nM

Structure (SMILES): COc1cc(C(=O)c2cn(-c3cccnc3)cc2-c2ccc(C(F)(F)F)cc2)cc(OC)c1OC [Compound 12, (1-(Pyridin-3-yl)-4-(4-(trifluoromethyl)phenyl)-1H-pyrrol-3-yl)(3,4,5-trimethoxyphenyl)methanone]
- IC50 (tubulin [2]): > 20000 nM
- IC50 [3, 4]: 3900 ± 70 nM

Structure (SMILES): COc1cc(C(=O)c2cn(-c3cccnc3)cc2-c2ccc(N(C)C)cc2)cc(OC)c1OC [Compound 13, (4-(4-(Dimethylamino)phenyl)-1-(pyridin-3-yl)-1H-pyrrol-3-yl)(3,4,5-trimethoxyphenyl)methanone]
- Colch. binding (% ± SD) (tubulin [1]): 9.6 ± 4%
- IC50 (tubulin [2]): 3400 ± 300 nM
- IC50 [3, 4]: 1000 ± 100 nM

Structure (SMILES): COc1cc(C(=O)c2cn(-c3ncccn3)cc2-c2ccc(C)cc2)cc(OC)c1OC [Compound 14, (1-(Pyrimidin-2-yl)-4-(4-tolyl)-1H-pyrrol-3-yl)(3,4,5-trimethoxyphenyl)methanone]
- Colch. binding (% ± SD) (tubulin [1]): 54 ± 3%
- IC50 (tubulin [2]): 1300 ± 40 nM
- IC50 [3, 4]: 170 ± 50 nM

Structure (SMILES): COc1ccc(-c2cn(-c3ncccn3)cc2C(=O)c2cc(OC)c(OC)c(OC)c2)cc1 [Compound 15, (4-(4-Methoxyphenyl)-1-(pyrimidin-2-yl)-1H-pyrrol-3-yl)(3,4,5-trimethoxyphenyl)methanone]
- Colch. binding (% ± SD) (tubulin [1]): 65 ± 5%
- IC50 (tubulin [2]): 1100 ± 100 nM
- IC50 [3, 4]: 95 ± 20 nM

Structure (SMILES): COc1cc(OC)cc(-c2cn(-c3ncccn3)cc2C(=O)c2cc(OC)c(OC)c(OC)c2)c1 [Compound 16, (4-(3,5-Dimethoxyphenyl)-1-(pyrimidin-2-yl)-1H-pyrrol-3-yl)(3,4,5-trimethoxyphenyl)methanone]
- Colch. binding (% ± SD) (tubulin [1]): 25 ± 5%
- IC50 (tubulin [2]): 1100 ± 60 nM
- IC50 [3, 4]: 780 ± 40 nM

Structure (SMILES): COc1cc(C(=O)c2cn(-c3ncccn3)cc2-c2cc(OC)c(OC)c(OC)c2)cc(OC)c1OC [Compound 17, (1-(Pyrimidin-2-yl)-4-(3,4,5-trimethoxyphenyl)-1H-pyrrol-3-yl)(3,4,5-trimethoxyphenyl)methanone]
- IC50 (tubulin [2]): > 20000 nM
- IC50 [3, 4]: > 5000 nM

Structure (SMILES): COc1cc(C(=O)c2cn(-c3ncccn3)cc2-c2ccc(F)cc2)cc(OC)c1OC [Compound 18, (4-(4-Fluorophenyl)-1-(pyrimidin-2-yl)-1H-pyrrol-3-yl)(3,4,5-trimethoxyphenyl)methanone]
- Colch. binding (% ± SD) (tubulin [1]): 70 ± 1%
- IC50 (tubulin [2]): 2400 ± 80 nM
- IC50 [3, 4]: 150 ± 7 nM

Structure (SMILES): COc1cc(C(=O)c2cn(-c3ncccn3)cc2-c2ccc(C(F)(F)F)cc2)cc(OC)c1OC [Compound 19, (1-(Pyrimidin-2-yl)-4-(4-(trifluoromethyl)phenyl)-1H-pyrrol-3-yl)(3,4,5-trimethoxyphenyl)methanone]
- Colch. binding (% ± SD) (tubulin [1]): 18 ± 4%
- IC50 (tubulin [2]): 2800 ± 100 nM
- IC50 [3, 4]: 530 nM

Structure (SMILES): COc1cc(C(=O)c2cn(-c3ncccn3)cc2-c2ccc(Cl)cc2)cc(OC)c1OC [Compound 20, (4-(4-Chlorophenyl)-1-(pyrimidin-2-yl)-1H-pyrrol-3-yl)(3,4,5-trimethoxyphenyl)methanone]
- Colch. binding (% ± SD) (tubulin [1]): 69 ± 4%
- IC50 (tubulin [2]): 760 ± 100 nM
- IC50 [3, 5]: 68 ± 10 nM

Structure (SMILES): COc1cc(C(=O)c2cn(-c3ncccn3)cc2-c2ccc([N+](=O)[O-])cc2)cc(OC)c1OC [Compound 21, (4-(4-Nitrophenyl)-1-(pyrimidin-2-yl)-1H-pyrrol-3-yl)(3,4,5-trimethoxyphenyl)methanone]
- Colch. binding (% ± SD) (tubulin [1]): 34 ± 1%
- IC50 (tubulin [2]): 1300 ± 200 nM
- IC50 [3, 4]: 450 ± 100 nM

Structure (SMILES): COc1cc(C(=O)c2cn(-c3ncccn3)cc2-c2ccc(N(C)C)cc2)cc(OC)c1OC [Compound 22, (4-(4-(Dimethylamino)phenyl)-1-(pyrimidin-2-yl)-1H-pyrrol-3-yl)(3,4,5-trimethoxyphenyl)methanone]
- Colch. binding (% ± SD) (tubulin [1]): 80 ± 0.2%
- IC50 (tubulin [2]): 680 ± 100 nM
- IC50 [3, 4]: 10 nM

Structure (SMILES): COc1cc(C(=O)c2cn(-c3ncccn3)cc2/C=C/c2ccccc2)cc(OC)c1OC [Compound 23, (E)-(1-(pyrimidin-2-yl)-4-styryl-1H-pyrrol-3-yl)(3,4,5-trimethoxyphenyl)methanone]
- Colch. binding (% ± SD) (tubulin [1]): 65 ± 5%
- IC50 (tubulin [2]): 770 ± 30 nM
- IC50 [3, 4]: 270 ± 10 nM

Structure (SMILES): COc1cc(C(=O)c2cn(-c3ncccn3)cc2-c2ccc(N3CCCCC3)cc2)cc(OC)c1OC [Compound 24, (4-(4-(Piperidin-1-yl)phenyl)-1-(pyrimidin-2-yl)-1H-pyrrol-3-yl)(3,4,5-trimethoxyphenyl)methanone]
- Colch. binding (% ± SD) (tubulin [1]): 35 ± 2%
- IC50 (tubulin [2]): 630 ± 40 nM
- IC50 [3, 4]: 112 ± 7.7 nM

Structure (SMILES): COc1cc(C(=O)c2cn(-c3ccccn3)c3ccc(Cl)cc23)cc(OC)c1OC [Compound 25, (5-Chloro-1-(pyridin-2-yl)-1H-indol-3-yl)(3,4,5-trimethoxyphenyl)methanone]
- Colch. binding (% ± SD) (tubulin [1]): 36 ± 4%
- IC50 (tubulin [2]): 1500 ± 300 nM
- IC50 [3, 5]: 42 nM
- IC50 ([3]; cells grown for 96 h): 41.7 ± 2.6 nM

Structure (SMILES): COc1cc(C(=O)c2cn(-c3cccnc3)c3ccc(Cl)cc23)cc(OC)c1OC [Compound 26, (5-Chloro-1-(pyridin-3-yl)-1H-indol-3-yl)(3,4,5-trimethoxyphenyl)methanone]
- Colch. binding (% ± SD) (tubulin [1]): 23 ± 4%
- IC50 (tubulin [2]): 1500 ± 300 nM
- IC50 [3, 5]: 306 ± 13.4 nM

Structure (SMILES): COc1cc(C(=O)c2cn(-c3ncccn3)c3ccc(Cl)cc23)cc(OC)c1OC [Compound 27, (5-Chloro-1-(pyrimidin-2-yl)-1H-indol-3-yl)(3,4,5-trimethoxyphenyl)methanone]
- Colch. binding (% ± SD) (tubulin [1]): 34 ± 5%
- IC50 (tubulin [2]): 1000 ± 90 nM
- IC50 [3, 5]: 77 ± 10 nM

Structure (SMILES): COc1cc(C(=O)c2cn(-c3ncccn3)c3ccc(F)cc23)cc(OC)c1OC [Compound 28, (5-Fluoro-1-(pyrimidin-2-yl)-1H-indol-3-yl)(3,4,5-trimethoxyphenyl)methanone]
- Colch. binding (% ± SD) (tubulin [1]): 45 ± 0.8%
- IC50 (tubulin [2]): 590 ± 100 nM
- IC50 [3, 5]: 73 ± 4 nM

Structure (SMILES): COc1cc(C(=O)c2cn(-c3ncccn3)c3ccc(C#N)cc23)cc(OC)c1OC [Compound 29, 1-(Pyrimidin-2-yl)-3-(3,4,5-trimethoxybenzoyl)-1H-indole-5-carbonitrile]
- Colch. binding (% ± SD) (tubulin [1]): 42 ± 5%
- IC50 (tubulin [2]): 1300 ± 70 nM
- IC50 [3, 5]: 230 ± 7 nM

Structure (SMILES): COc1ccc2c(c1)c(C(=O)c1cc(OC)c(OC)c(OC)c1)cn2-c1ncccn1 [Compound 30, (5-Methoxy-1-(pyrimidin-2-yl)-1H-indol-3-yl)(3,4,5-trimethoxyphenyl)methanone]
- Colch. binding (% ± SD) (tubulin [1]): 71% and 71 ± 5%
- IC50 (tubulin [2]): 380 ± 40 nM
- IC50 [3, 5]: 220 ± 60 nM
